Experimental data as given in US9833497B2, “Human originated EGF domain proteins and use of the same” (CHENGDU SOURCEBIO LIMITED-LIABILITY COMPANY, priority 2013, dated 2017).

Experiments:
Format in all cases: cell-based
Pseudomonas aeruginosa = assay: MIC against Gram-negative bacteria: Pseudomonas aeruginosa; settings: 5×10^5 CFU/mL
How it was run: (§1)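 Antibacterial activity of purified human EGF domain proteins: two-fold concentration series, triplicate wells, LB broth, 5×10^5 CFU/mL bacteria, 37° C shaking incubation. The lowest concentration without growth defines the MIC.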

Proteus mirabilis = assay: MIC against Gram-negative bacteria: Proteus mirabilis; settings: 5×10^5 CFU/mL
How it was run: as §1

Proteus vulgaris = assay: MIC against Gram-negative bacteria: Proteus vulgaris; settings: 5×10^5 CFU/mL
How it was run: as §1

Serratia marcescens = assay: MIC against Gram-negative bacteria: Serratia marcescens; settings: 5×10^5 CFU/mL
How it was run: as §1

Aeromonas hydrophila = assay: MIC against Gram-negative bacteria: Aeromonas hydrophila; settings: 5×10^5 CFU/mL
How it was run: as §1

E. coli BL21 = assay: MIC against Gram-negative bacteria: E. coli BL21; settings: 5×10^5 CFU/mL
How it was run: as §1

E. coli DH5α = assay: Antibacterial activity: MIC and growth curve against E. coli DH5α in 96-well plate; settings: minimal inhibitory concentration against E. coli DH5α; 96-well plate, 5×10^5 CFU/mL, 37° C., judged after 8 h
How it was run: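 Log-phase DH5α (OD600 about 0.5, 37° C, 185 rpm in LB) was pelleted, resuspended in fresh LB and seeded at 5×10^5 CFU/mL with recombinant protein at 50, 25 and 12.5 μg/mL (two-fold series), in triplicate. Plates were shaken at 175 rpm, 37° C, and OD600 was read every 30 min. MIC was the lowest concentration with no growth.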

Enterobacter cloacae = assay: MIC against Gram-negative bacteria: Enterobacter cloacae; settings: 5×10^5 CFU/mL
How it was run: as §1

Moraxella catarrhalis = assay: MIC against Gram-negative bacteria: Moraxella catarrhalis; settings: 5×10^5 CFU/mL
How it was run: as §1

Citrobacter diversus = assay: MIC against Gram-negative bacteria: Citrobacter diversus; settings: 5×10^5 CFU/mL
How it was run: as §1

Klebsiella pneumonia = assay: MIC against Gram-negative bacteria: Klebsiella pneumonia; settings: 5×10^5 CFU/mL
How it was run: as §1

[1] = Pseudomonas aeruginosa, 96-well plate, 37° C., 10 h
[2] = Proteus mirabilis, 96-well plate, 37° C., 10 h
[3] = Proteus vulgaris, 96-well plate, 37° C., 10 h
[4] = Serratia marcescens, 96-well plate, 37° C., 10 h
[5] = Aeromonas hydrophila, 96-well plate, 37° C., 10 h
[6] = E. coli BL21, 96-well plate, 37° C., 10 h
[7] = Enterobacter cloacae, 96-well plate, 37° C., 10 h
[8] = Moraxella catarrhalis, 96-well plate, 37° C., 10 h
[9] = Citrobacter diversus, 96-well plate, 37° C., 10 h
[10] = Klebsiella pneumonia, 96-well plate, 37° C., 10 h

Question: Which results are given for “PRT543 (CGCHEVGATGPTCEPFGGQCPCHAHVIGRDCSRCATGYWGFPNCRP; listed as Homo sapiens)”?
Answer: MIC against P. aeruginosa (Pseudomonas aeruginosa; 96-well plate, 37° C., 10 h): 12.5 µg/mL; MIC against P. mirabilis (Proteus mirabilis; 96-well plate, 37° C., 10 h): 25 µg/mL; MIC against P. vulgaris (Proteus vulgaris; 96-well plate, 37° C., 10 h): 50 µg/mL; MIC against S. marcescens (Serratia marcescens; 96-well plate, 37° C., 10 h): 25 µg/mL; MIC against A. hydrophila (Aeromonas hydrophila; 96-well plate, 37° C., 10 h): 50 µg/mL; MIC against E. coli BL21 (E. coli BL21; 96-well plate, 37° C., 10 h): 50 µg/mL; MIC (E. coli DH5α): 12.5 µg/mL; MIC against E. cloacae (Enterobacter cloacae; 96-well plate, 37° C., 10 h): 12.5 µg/mL; MIC against M. catarrhalis (Moraxella catarrhalis; 96-well plate, 37° C., 10 h): 12.5 µg/mL; MIC against C. diversus (Citrobacter diversus; 96-well plate, 37° C., 10 h): 25 µg/mL; MIC against K. pneumonia (Klebsiella pneumonia; 96-well plate, 37° C., 10 h): 50 µg/mL

Question: With “PRT2 (DQLICVNENGGCEQYCSDHTGTKRSCRCHEGYSLLADGVSCT; listed as Homo sapiens)” as the substance, how does the “MIC (μg/mL) P. aeruginosa” value (Pseudomonas aeruginosa; [1]) read?
Answer: 50 µg/mL

Question: What about the “MIC (μg/mL) P. mirabilis” value (Proteus mirabilis; [2]) of the same substance?
Answer: 25 µg/mL

Question: And the “MIC (μg/mL) P. vulgaris” value (Proteus vulgaris; [3])?
Answer: 12.5 µg/mL

Question: And the “MIC (μg/mL) S. marcescens” value (Serratia marcescens; [4])?
Answer: 12.5 µg/mL

Question: And the “MIC (μg/mL) A. hydrophila” value (Aeromonas hydrophila; [5])?
Answer: 25 µg/mL

Question: And the “MIC (μg/mL) E. coli BL21” value (E. coli BL21; [6])?
Answer: 50 µg/mL

Question: And the MIC (E. coli DH5α)?
Answer: 25 µg/mL

Question: And the “MIC (μg/mL) E. cloacae” value (Enterobacter cloacae; [7])?
Answer: 25 µg/mL

Question: What about the “MIC (μg/mL) M. catarrhalis” value (Moraxella catarrhalis; [8]) of the same substance?
Answer: 12.5 µg/mL

Question: And the “MIC (μg/mL) C. diversus” value (Citrobacter diversus; [9])?
Answer: 25 µg/mL

Question: And the “MIC (μg/mL) K. pneumonia” value (Klebsiella pneumonia; [10])?
Answer: 50 µg/mL

Question: What does the source list for “PRT1237 (LGPGCLDNCRGHGDCLREQCICDPGYSGPNCY; listed as Homo sapiens)”?
Answer: MIC against P. aeruginosa (Pseudomonas aeruginosa; [1]): 25 µg/mL; MIC against P. mirabilis (Proteus mirabilis; [2]): 25 µg/mL; MIC against P. vulgaris (Proteus vulgaris; [3]): 12.5 µg/mL; MIC against S. marcescens (Serratia marcescens; [4]): 50 µg/mL; MIC against A. hydrophila (Aeromonas hydrophila; [5]): 12.5 µg/mL; MIC against E. coli BL21 (E. coli BL21; [6]): 12.5 µg/mL; MIC (E. coli DH5α): 12.5 µg/mL; MIC against E. cloacae (Enterobacter cloacae; [7]): 12.5 µg/mL; MIC against M. catarrhalis (Moraxella catarrhalis; [8]): 50 µg/mL; MIC against C. diversus (Citrobacter diversus; [9]): 25 µg/mL; MIC against K. pneumonia (Klebsiella pneumonia; [10]): 12.5 µg/mL

Question: What does the source list for “PRT820 (YGDNCRHSCLCQNGGTCDPVSGHCACPEGWAGLACE; listed as Homo sapiens)”?
Answer: MIC (μg/mL) P. aeruginosa (Pseudomonas aeruginosa; P. aeruginosa, 10 h cultivation at 37° C.): 12.5 µg/mL; MIC (μg/mL) P. mirabilis (Proteus mirabilis; P. mirabilis, 10 h cultivation at 37° C.): 12.5 µg/mL; MIC (μg/mL) P. vulgaris (Proteus vulgaris; P. vulgaris, 10 h cultivation at 37° C.): 12.5 µg/mL; MIC (μg/mL) S. marcescens (Serratia marcescens; S. marcescens, 10 h cultivation at 37° C.): 25 µg/mL; MIC (μg/mL) A. hydrophila (Aeromonas hydrophila; A. hydrophila, 10 h cultivation at 37° C.): 50 µg/mL; MIC (μg/mL) E. coli BL21 (E. coli BL21; E. coli BL21, 10 h cultivation at 37° C.): 50 µg/mL; MIC (E. coli DH5α): 12.5 µg/mL; MIC (μg/mL) E. cloacae (Enterobacter cloacae; E. cloacae, 10 h cultivation at 37° C.): 12.5 µg/mL; MIC (μg/mL) M. catarrhalis (Moraxella catarrhalis; M. catarrhalis, 10 h cultivation at 37° C.): 50 µg/mL; MIC (μg/mL) C. diversus (Citrobacter diversus; C. diversus, 10 h cultivation at 37° C.): 12.5 µg/mL; MIC (μg/mL) K. pneumonia (Klebsiella pneumonia; K. pneumonia, 10 h cultivation at 37° C.): 50 µg/mL

Question: Which results are given for “PRT474 (QADPCQPNPCEHGGDCLVHGSTFTCSCLAPFSGNKCQ; listed as Homo sapiens)”?
Answer: MIC against P. aeruginosa (Pseudomonas aeruginosa; 96-well plate, 37° C., 10 h): 25 µg/mL; MIC against P. mirabilis (Proteus mirabilis; 96-well plate, 37° C., 10 h): 12.5 µg/mL; MIC against P. vulgaris (Proteus vulgaris; 96-well plate, 37° C., 10 h): 50 µg/mL; MIC against S. marcescens (Serratia marcescens; 96-well plate, 37° C., 10 h): 12.5 µg/mL; MIC against A. hydrophila (Aeromonas hydrophila; 96-well plate, 37° C., 10 h): 50 µg/mL; MIC against E. coli BL21 (E. coli BL21; 96-well plate, 37° C., 10 h): 25 µg/mL; MIC (E. coli DH5α): 12.5 µg/mL; MIC against E. cloacae (Enterobacter cloacae; 96-well plate, 37° C., 10 h): 25 µg/mL; MIC against M. catarrhalis (Moraxella catarrhalis; 96-well plate, 37° C., 10 h): 50 µg/mL; MIC against C. diversus (Citrobacter diversus; 96-well plate, 37° C., 10 h): 12.5 µg/mL; MIC against K. pneumonia (Klebsiella pneumonia; 96-well plate, 37° C., 10 h): 25 µg/mL
